This is an account of results in patent US12065436B2, “Cardiac sarcomere inhibitors” (Cytokinetics, Inc., priority 2018, dated 2024).

The assay addresses bovine cardiac myofibrils (full-length cardiac myosin ATPase in the native sarcomere) (Bos taurus (Bovine), UniProt Q9BE39). The assay is described as follows: Skinned bovine cardiac myofibril ATPase assay (PK/LDH-coupled). It is filed as biochemical. The note with it: Ca2+ activating to 75% of maximal rate; for CDMF75 IC15: concentration giving 15% inhibition; for IC50: read-out: CDMF75 IC50. An outline of the steps: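 Triton-skinned bovine left-ventricle myofibrils (1 mg/mL) in PM 12 buffer (12 mM PIPES, 2 mM MgCl2, pH 6.8) with 50 μM ATP, 0.6 mM EGTA and CaCl2 set for 50% or 75% activation. Steady-state ATPase inhibition followed by PK/LDH-coupled NADH oxidation at 340 nm.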

As usually defined, the IC50 is the concentration that inhibits the measured activity by half.

Sequence of bovine cardiac myofibrils (full-length cardiac myosin ATPase in the native sarcomere) (Q9BE39 whole entry): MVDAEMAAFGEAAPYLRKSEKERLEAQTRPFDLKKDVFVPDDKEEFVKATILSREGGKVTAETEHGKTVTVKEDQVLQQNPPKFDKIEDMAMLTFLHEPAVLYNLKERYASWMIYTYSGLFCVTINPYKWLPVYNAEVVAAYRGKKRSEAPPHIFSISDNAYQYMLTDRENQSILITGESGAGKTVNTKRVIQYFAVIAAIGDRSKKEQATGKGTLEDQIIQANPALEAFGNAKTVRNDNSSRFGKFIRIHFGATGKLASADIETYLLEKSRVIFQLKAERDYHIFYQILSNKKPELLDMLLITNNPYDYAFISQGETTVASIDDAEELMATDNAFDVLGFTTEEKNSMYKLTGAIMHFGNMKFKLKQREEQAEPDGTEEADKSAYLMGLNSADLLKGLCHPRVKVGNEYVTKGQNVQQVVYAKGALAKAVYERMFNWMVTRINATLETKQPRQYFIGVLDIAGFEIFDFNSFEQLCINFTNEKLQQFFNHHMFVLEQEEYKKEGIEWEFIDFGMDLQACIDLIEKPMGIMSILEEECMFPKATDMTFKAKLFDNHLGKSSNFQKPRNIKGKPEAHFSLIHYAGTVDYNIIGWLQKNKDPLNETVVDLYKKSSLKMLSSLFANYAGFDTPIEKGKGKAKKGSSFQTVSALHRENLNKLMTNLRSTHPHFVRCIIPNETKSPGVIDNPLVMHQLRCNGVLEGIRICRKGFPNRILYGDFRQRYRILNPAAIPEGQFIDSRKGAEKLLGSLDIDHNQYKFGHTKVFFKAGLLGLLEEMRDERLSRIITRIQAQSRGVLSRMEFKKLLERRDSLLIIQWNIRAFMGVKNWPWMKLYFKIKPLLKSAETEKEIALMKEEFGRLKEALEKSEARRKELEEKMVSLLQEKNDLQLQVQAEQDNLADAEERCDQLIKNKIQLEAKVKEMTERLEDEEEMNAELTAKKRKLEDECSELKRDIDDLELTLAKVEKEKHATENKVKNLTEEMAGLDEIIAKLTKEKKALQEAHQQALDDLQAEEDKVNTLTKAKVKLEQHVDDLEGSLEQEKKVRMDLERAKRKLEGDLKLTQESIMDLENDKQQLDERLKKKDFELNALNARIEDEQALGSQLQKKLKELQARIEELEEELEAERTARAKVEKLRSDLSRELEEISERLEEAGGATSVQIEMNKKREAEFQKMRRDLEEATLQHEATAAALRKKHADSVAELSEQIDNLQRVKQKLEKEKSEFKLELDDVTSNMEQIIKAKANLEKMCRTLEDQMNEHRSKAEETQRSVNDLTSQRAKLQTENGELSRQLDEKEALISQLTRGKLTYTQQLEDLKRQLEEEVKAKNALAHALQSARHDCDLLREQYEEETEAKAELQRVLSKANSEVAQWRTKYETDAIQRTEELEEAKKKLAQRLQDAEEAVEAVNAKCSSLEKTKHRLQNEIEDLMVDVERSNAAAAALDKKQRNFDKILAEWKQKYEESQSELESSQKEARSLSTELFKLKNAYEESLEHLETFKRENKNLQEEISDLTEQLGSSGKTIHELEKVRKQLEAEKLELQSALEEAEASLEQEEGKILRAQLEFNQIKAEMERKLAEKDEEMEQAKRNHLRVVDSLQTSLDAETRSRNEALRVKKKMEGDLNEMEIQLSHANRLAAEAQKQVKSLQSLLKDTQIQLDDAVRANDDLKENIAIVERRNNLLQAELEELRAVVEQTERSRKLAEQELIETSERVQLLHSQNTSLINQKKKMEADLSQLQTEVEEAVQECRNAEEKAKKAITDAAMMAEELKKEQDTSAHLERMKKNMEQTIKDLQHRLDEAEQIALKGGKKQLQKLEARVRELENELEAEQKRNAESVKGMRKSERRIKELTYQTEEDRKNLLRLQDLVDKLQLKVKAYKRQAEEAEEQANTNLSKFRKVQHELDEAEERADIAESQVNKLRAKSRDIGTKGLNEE
Sequence of bovine cardiac myofibrils (full-length cardiac myosin ATPase in the native sarcomere) (P85100 whole entry partner): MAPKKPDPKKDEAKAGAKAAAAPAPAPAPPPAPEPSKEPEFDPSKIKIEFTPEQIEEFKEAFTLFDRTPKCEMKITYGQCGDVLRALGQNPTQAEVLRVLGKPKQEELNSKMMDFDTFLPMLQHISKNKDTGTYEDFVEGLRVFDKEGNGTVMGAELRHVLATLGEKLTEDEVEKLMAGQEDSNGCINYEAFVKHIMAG
Sequence of bovine cardiac myofibrils (full-length cardiac myosin ATPase in the native sarcomere) (Q3SZE5 whole entry partner): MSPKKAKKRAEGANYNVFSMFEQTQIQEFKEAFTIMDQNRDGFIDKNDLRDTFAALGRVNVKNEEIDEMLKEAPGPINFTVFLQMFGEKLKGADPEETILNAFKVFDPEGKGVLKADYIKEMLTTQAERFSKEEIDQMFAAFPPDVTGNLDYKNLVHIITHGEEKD

Take `Cc1nc(-c2ccc3c(c2)CCC3NC(=O)c2cnoc2C)no1` (stereo not shown) [Compound 46, 5-methyl-N-(5-(5-methyl-1,2,4-oxadiazol-3-yl)-2,3-dihydro-1H-inden-1-yl)isoxazole-4-carboxamide]: the “CDMF75 IC15” value is 1.2 µM and the IC50 was found to be 4.2 µM.

Turning to `Cc1nn(C)cc1C(=O)N[C@@H]1CCc2cc(-c3noc(C(F)F)n3)ccc21` [Compound 90, (R)-N-(5-(5-(difluoromethyl)-1,2,4-oxadiazol-3-yl)-2,3-dihydro-1H-inden-1-yl)-1,3-dimethyl-1H-pyrazole-4-carboxamide], the “CDMF75 IC15” value amounted to 0.4 µM and the IC50 amounted to 1.9 µM.

As to `Cc1noc(-c2ccc3c(c2)CC[C@H]3NC(=O)c2cnn(C)c2)n1` [Compound 263, (R)-1-methyl-N-(5-(3-methyl-1,2,4-oxadiazol-5-yl)-2,3-dihydro-1H-inden-1-yl)-1H-pyrazole-4-carboxamide], the “CDMF75 IC15” value is 2.8 µM and the IC50 is 10.5 µM.

Regarding `Cn1cnnc1C(=O)N[C@@H]1CCc2cc(-c3noc(C(F)F)n3)ccc21` [Compound 165, (R)-N-(5-(5-(difluoromethyl)-1,2,4-oxadiazol-3-yl)-2,3-dihydro-1H-inden-1-yl)-4-methyl-4H-1,2,4-triazole-3-carboxamide], the “CDMF75 IC15” value is 4.6 µM and the IC50 was 23.5 µM.

For `CCc1nc(-c2ccc3c(c2)CC[C@H]3NC(=O)c2cnn(CCCO)c2C)no1` [Compound 611, (R)-N-(5-(5-ethyl-1,2,4-oxadiazol-3-yl)-2,3-dihydro-1H-inden-1-yl)-1-(3-hydroxypropyl)-5-methyl-1H-pyrazole-4-carboxamide], the “CDMF75 IC15” value was 0.7 µM and the IC50 is 2.5 µM.

On to `C[C@@H](CO)c1nc(-c2ccc3c(c2)CC[C@H]3NC(=O)c2ccnn2C)no1` [Compound 498, N-((R)-5-(5-((S)-1-hydroxypropan-2-yl)-1,2,4-oxadiazol-3-yl)-2,3-dihydro-1H-inden-1-yl)-1-methyl-1H-pyrazole-5-carboxamide], for which the “CDMF75 IC15” value was 7.9 µM and the concentration for half-maximal inhibition (IC50) amounted to 34.7 µM.

With `COCc1nc(-c2ccc3c(c2)OCC3NC(=O)c2ccnn2C)no1` (stereo not shown) [Compound 223, N-(6-(5-(methoxymethyl)-1,2,4-oxadiazol-3-yl)-2,3-dihydrobenzofuran-3-yl)-1-methyl-1H-pyrazole-5-carboxamide], the “CDMF75 IC15” value was 1.3 µM and the IC50 turned out to be 4.2 µM.

Regarding `COCc1nc(-c2ccc3c(c2)OCC3NC(=O)c2cc(C)nn2C)no1` (stereo not shown) [Compound 226, N-(6-(5-(methoxymethyl)-1,2,4-oxadiazol-3-yl)-2,3-dihydrobenzofuran-3-yl)-1,3-dimethyl-1H-pyrazole-5-carboxamide], the “CDMF75 IC15” value came out at 1.2 µM and the IC50 came out at 4 µM.

Take `Cc1cc(C(=O)NC2CCc3cc(-c4nc(C)no4)ccc32)ccn1` (stereo not shown) [Compound 130, 2-methyl-N-(5-(3-methyl-1,2,4-oxadiazol-5-yl)-2,3-dihydro-1H-inden-1-yl)isonicotinamide]: the “CDMF75 IC15” value came out at 2.5 µM and the IC50 worked out at 10.3 µM.

On to `CCc1nc(-c2ccc3c(c2)CC[C@H]3NC(=O)OCC2CN(C(=O)NC)C2)no1` [Compound 363, (1-(methylcarbamoyl)azetidin-3-yl)methyl (R)-(5-(5-ethyl-1,2,4-oxadiazol-3-yl)-2,3-dihydro-1H-inden-1-yl)carbamate], for which the “CDMF75 IC15” value stood at 4.7 µM and the IC50 worked out at 21.1 µM.

With `CCc1nc(-c2ccc3c(c2)CC[C@H]3NC(=O)c2cn(CCO)nc2C)no1` [Compound 597, (R)-N-(5-(5-ethyl-1,2,4-oxadiazol-3-yl)-2,3-dihydro-1H-inden-1-yl)-1-(2-hydroxyethyl)-3-methyl-1H-pyrazole-4-carboxamide], the “CDMF75 IC15” value was 0.5 µM and the IC50 is 1.9 µM.

Regarding `O=C(N[C@@H]1COc2cc(-c3noc(C(F)F)n3)ccc21)c1cc(CO)ccn1` [Compound 708, (S)-N-(6-(5-(difluoromethyl)-1,2,4-oxadiazol-3-yl)-2,3-dihydrobenzofuran-3-yl)-4-(hydroxymethyl)picolinamide], the “CDMF75 IC15” value is 0.6 µM and the IC50 was 2.8 µM.

On to `[2H]C([2H])([2H])c1nc(-c2ccc3c(c2)CC[C@H]3NC(=O)c2cnc(C)o2)no1` [Compound 249, (R)-2-methyl-N-(5-(5-(methyl-d3)-1,2,4-oxadiazol-3-yl)-2,3-dihydro-1H-inden-1-yl)oxazole-5-carboxamide], for which the “CDMF75 IC15” value was 1.4 µM and the IC50 stood at 5.2 µM.

On to `Cc1nc(-c2ccc3c(c2)OCC3NC(=O)c2oc(C)nc2C)no1` (stereo not shown) [Compound 159, 2,4-dimethyl-N-(6-(5-methyl-1,2,4-oxadiazol-3-yl)-2,3-dihydrobenzofuran-3-yl)oxazole-5-carboxamide], for which the “CDMF75 IC15” value is 1.9 µM and the IC50 came out at 8.4 µM.

Consider `Cc1nc(-c2ccc3c(c2)CC[C@H]3NC(=O)c2cnc(C)o2)no1` [Compound 48, (R)-2-methyl-N-(5-(5-methyl-1,2,4-oxadiazol-3-yl)-2,3-dihydro-1H-inden-1-yl)oxazole-5-carboxamide], for which the “CDMF75 IC15” value is 1.4 µM and the IC50 is 4.9 µM.

For `CCc1nc(-c2ccc3c(c2)CC[C@H]3NC(=O)N2CC[C@H](O)C2)no1` [Compound 723, (S)-N-((R)-5-(5-ethyl-1,2,4-oxadiazol-3-yl)-2,3-dihydro-1H-inden-1-yl)-3-hydroxypyrrolidine-1-carboxamide], the “CDMF75 IC15” value came out at 4.4 µM and the IC50 stood at 20.3 µM.

In the case of `[2H]C([2H])([2H])c1nc(-c2ccc3c(c2)OC[C@H]3NC(=O)c2cnc(C)o2)no1` [Compound 267, (S)-2-methyl-N-(6-(5-(methyl-d3)-1,2,4-oxadiazol-3-yl)-2,3-dihydrobenzofuran-3-yl)oxazole-5-carboxamide], the “CDMF75 IC15” value came out at 1.2 µM and the IC50 is 4.4 µM.

Regarding `Cc1cc(-c2ccc3c(c2)CC[C@H]3NC(=O)c2ccnn2C)cnn1` [Compound 384, (R)-1-methyl-N-(5-(6-methylpyridazin-4-yl)-2,3-dihydro-1H-inden-1-yl)-1H-pyrazole-5-carboxamide], the “CDMF75 IC15” value stood at 39.2 µM and the IC50 is above 39.2 µM.

With `COCc1nc(-c2ccc3c(c2)CC[C@H]3NC(=O)c2ocnc2C)no1` [Compound 177, (R)-N-(5-(5-(methoxymethyl)-1,2,4-oxadiazol-3-yl)-2,3-dihydro-1H-inden-1-yl)-4-methyloxazole-5-carboxamide], the “CDMF75 IC15” value is 0.5 µM and the IC50 was 1.8 µM.

Take `Cn1nccc1C(=O)N[C@@H]1CCc2cc(-c3noc(C4(C)CC4)n3)ccc21` [Compound 459, (R)-1-methyl-N-(5-(5-(1-methylcyclopropyl)-1,2,4-oxadiazol-3-yl)-2,3-dihydro-1H-inden-1-yl)-1H-pyrazole-5-carboxamide]: the “CDMF75 IC15” value is 0.4 µM and the IC50 is 1.2 µM.

Consider `Cc1ncoc1C(=O)N[C@@H]1COc2cc(-c3noc(C4CC4)n3)ccc21` [Compound 456, (S)-N-(6-(5-cyclopropyl-1,2,4-oxadiazol-3-yl)-2,3-dihydrobenzofuran-3-yl)-4-methyloxazole-5-carboxamide], for which the “CDMF75 IC15” value amounted to 0.3 µM and the IC50 was determined as 1.1 µM.

Consider `Cc1nc(-c2ccc3c(c2)CC[C@H]3NC(=O)c2cc(C(F)F)ccn2)no1` [Compound 732, (R)-4-(difluoromethyl)-N-(5-(5-methyl-1,2,4-oxadiazol-3-yl)-2,3-dihydro-1H-inden-1-yl)picolinamide], for which the “CDMF75 IC15” value worked out at 0.7 µM and the IC50 turned out to be 3.4 µM.

In the case of `Cn1cc(C(=O)N[C@@H]2CCc3cc(-c4noc(CCO)n4)ccc32)cn1` [Compound 552, N-{(1R)-5-[5-(2-hydroxyethyl)(1,2,4-oxadiazol-3-yl)]indanyl}(1-methylpyrazol-4-yl)carboxamide], the “CDMF75 IC15” value was 13.7 µM and the IC50 worked out at 39.2 µM.

In the case of `CCc1nc(-c2ccc3c(c2)CC[C@H]3NC(=O)c2cnc(C)n2C)no1` [Compound 568, (R)-N-(5-(5-ethyl-1,2,4-oxadiazol-3-yl)-2,3-dihydro-1H-inden-1-yl)-1,2-dimethyl-1H-imidazole-5-carboxamide], the “CDMF75 IC15” value was 0.4 µM and the IC50 stood at 1.6 µM.

In the case of `O=C(N[C@@H]1CCc2cc(-c3noc(C4CC4)n3)ccc21)C(F)F` [Compound 439, (R)-N-(5-(5-cyclopropyl-1,2,4-oxadiazol-3-yl)-2,3-dihydro-1H-inden-1-yl)-2,2-difluoroacetamide], the “CDMF75 IC15” value came out at 1.1 µM and the IC50 is 4.8 µM.

For the compound `CCc1nc(-c2ccc3c(c2)CC[C@H]3NC(=O)c2ccnc(C(C)(C)O)c2)no1` [Compound 610, (R)-N-(5-(5-ethyl-1,2,4-oxadiazol-3-yl)-2,3-dihydro-1H-inden-1-yl)-2-(2-hydroxypropan-2-yl)isonicotinamide], the “CDMF75 IC15” value was found to be 2.0 µM and the IC50 is 8.6 µM.

`Cc1nc(-c2ccc3c(c2)OC[C@H]3NC(=O)c2nnn(C)n2)no1` [Compound 200, (S)-2-methyl-N-(6-(5-methyl-1,2,4-oxadiazol-3-yl)-2,3-dihydrobenzofuran-3-yl)-2H-tetrazole-5-carboxamide]: the “CDMF75 IC15” value was determined as 2.6 µM and the IC50 turned out to be 11.3 µM.

With `Cc1cc(C(=O)NC2CCc3cc(-c4noc(C(F)F)n4)ccc32)n(C)n1` (stereo not shown) [Compound 30, N-(5-(5-(difluoromethyl)-1,2,4-oxadiazol-3-yl)-2,3-dihydro-1H-inden-1-yl)-1,3-dimethyl-1H-pyrazole-5-carboxamide], the “CDMF75 IC15” value turned out to be 0.8 µM and the IC50 was 2.3 µM.

On to `Cc1nc(-c2ccc3c(c2)CC[C@H]3NC(=O)c2ccnn2C)no1` [Compound 107, (R)-1-methyl-N-(5-(5-methyl-1,2,4-oxadiazol-3-yl)-2,3-dihydro-1H-inden-1-yl)-1H-pyrazole-5-carboxamide], for which the “CDMF75 IC15” value worked out at 0.5 µM and the IC50 came to 1.7 µM.
